# Test results reported in patent publication US6866861B1, “Method and composition for enhancing milk component concentrations” (Land O'Lakes, Inc., priority 1999, dated 2005).
# Test system: cows
# Assay: Abomasal infusion of glycerol in cows, different cows (Example 5)
# Assay type: in vivo, cow
# Details: for Fat / Lactose / Total Solids / True Protein: 150 g/cow/day abomasal, average of 3 cows
# Method: To determine the weight percent total solids, wet basis, in a sample, the actual weight of total solids is determined by analyzing the sample in accordance with Method #925.23 (33.2.09) of Official Methods of Analysis, Association of Official Analytical Chemists (AOAC) (16th Ed., 1995). The weight percent total solids, wet basis, is then calculated by dividing the actual weight of total solids by the actual weight of the sample. The weight percent of true protein, wet basis, for a particular sample is calculated after first determining the wet basis weight percent of total Kjeldahl nitrogen and the wet basis weight percent of non-protein nitrogen in the sample. The wet basis weight percent of total Kjeldahl nitrogen in the sample is determined using the method referenced above. The wet basis weight percent of non-protein nitrogen (NPN) in the sample is determined in accordance with Method #991.21 (33.2.12) of Official Methods of Analysis, Association of Official Analytical Chemists (AOAC) (16th Ed., 1995). The weight percent of true protein, wet basis, in the sample is then determined by subtracting the wet basis weight percent of non-protein nitrogen in the sample from the wet basis weight percent of total Kjeldahl nitrogen in the sample. To determine the weight percent lactose, wet basis, in a liquid sample, the weight of the liquid sample is first determined. The actual weight of lactose in the liquid sample may then be determined using analysis kit number 176-303, that is available from Boehringer-Mannheim of Indianapolis, Ind. in accordance with the procedural instructions included with analysis kit number 176-303. The weight percent lactose, wet basis, in the liquid sample is then calculated by dividing the actual weight of lactose in the liquid sample by the actual weight of the liquid sample. To determine the weight percent fat, wet basis, in a sample, the actual weight of fat in the sample is determined in accordance with Method #974.09 (33.7.18) of Official Methods of Analysis, Association of Official Analytical Chemists (AOAC) (16th Ed., 1995). The weight percent fat, wet basis, is then calculated by dividing the actual weight of fat in the sample by the actual weight of the sample. In this example, glycerol was abomasally infused into three different cows at a rate of 150 grams per cow per day during a 14 day test period. The cows used in this Example were different from the cows used in Example 4. The rations provided to the cows during the period extending from day 0, prior to abomasal infusion of glycerol, through day 14 of the test period were the same. The only difference in feeding of the cows between day 0 and days 1-14 of the test period were that during days 1-14 the cows were abomasally infused with the dosage of 150 grams of glycerol per cow per day. The glycerol was not combined with any other materials prior to being abomasally infused into the cattle. Milk from the three cows was collected and analyzed prior to infusion (on day 0) and also was collected and analyzed on the third, seventh and fourteenth day of the test period. The results presented in Table 5 below for each milk component for each particular day are averages for the milk collected from the three different cows. The net change for the different milk components presented in Table 5 was calculated by averaging the results of days 3, 7 and 14 for a particular milk component and subtracting the results presented for day 0 for the particular milk component.
# [1] = milk, average of days 3, 7, 14 minus day 0
smiles,measurement,setting,value
OCC(O)CO [glycerol],"weight percent of fat, true protein, lactose, and total solids in the milk (conclusion in words)","abomasal infusion, 14 day test period",net increase
same,Fat,"milk, Day 3",3.39 Wt %
same,Lactose,"milk, Day 3",4.86 Wt. %
same,Total Solids,"milk, Day 3",12.04 Wt. %
same,True Protein,"milk, Day 3",3.04 Wt. %
same,Fat,"milk, Day 7",3.25 Wt %
same,Lactose,"milk, Day 7",5.19 Wt. %
same,Total Solids,"milk, Day 7",12.17 Wt. %
same,True Protein,"milk, Day 7",2.98 Wt. %
same,Fat,"milk, Day 14",3.32 Wt %
same,Lactose,"milk, Day 14",4.87 Wt. %
same,Total Solids,"milk, Day 14",11.99 Wt. %
same,True Protein,"milk, Day 14",3.05 Wt. %
same,"Fat, Net Change",[1],+0.25 Wt %
same,"Lactose, Net Change",[1],+0.08 Wt. %
same,"Total Solids, Net Change",[1],+0.44 Wt. %
same,"True Protein, Net Change",[1],+0.10 Wt. %
